# Measurements as given in PMC7031696 (Cell chemical biology, 2019).
# Like-named read-outs stand apart in the source and are kept apart here.
# Assays:
# [1] = test system: asynchronous 3D7-A10 parasite cultures; assay: Standard 72-h exposure asexual blood stage susceptibility assay (IC50^72h); type: cell-based, Plasmodium falciparum; conditions: Plasmodium falciparum, 3D7, 72 h, read-out: Overall (72hr assay) Mean IC50 (IC50^72h)
# [2] = test system: 3D7-MR4 trophozoite parasite-infected RBCs; assay: Metabolomic profiling (hydrophilic metabolite changes, UHPLC-MS); type: cell-based, Plasmodium falciparum
# [3] = test system: Plasmodium falciparum 3D7-A10 parasites; assay: Stage specificity assay (8-h exposure of synchronized stages, IC50^8h); type: cell-based; conditions: for IC50: Plasmodium falciparum
smiles,measurement,setting,value
"CN(C)c1ccc2nc3ccc(=[N+](C)C)cc-3sc2c1 [Methylene blue, reference compound]",IC50,[1],1.8 nM
same,changes within the set of metabolites detected (low fold change group),"[2]; 10 × IC50^72h, 2.5 hr, trophozoites",did not induce major changes
same,Log2(fold changes) 3-phosphoglycerate,"[2]; metabolite 3-phosphoglycerate, log2 fold change",0.1717
same,Log2(fold changes) 4-Pyridoxic acid,"[2]; metabolite 4-Pyridoxic acid, log2 fold change",0.0000
same,Log2(fold changes) 4-aminobutyrate,"[2]; metabolite 4-aminobutyrate, log2 fold change",-0.1073
same,Log2(fold changes) 4-phosphopantetheine,"[2]; metabolite 4-phosphopantetheine, log2 fold change",0.0000
same,Log2(fold changes) 4-phosphopantothenate,"[2]; metabolite 4-phosphopantothenate, log2 fold change",-0.3089
same,Log2(fold changes) 5-aminopentanoic acid,"[2]; metabolite 5-aminopentanoic acid, log2 fold change",0.0000
same,Log2(fold changes) 5-methyl-THF,"[2]; metabolite 5-methyl-THF, log2 fold change",0.0000
same,Log2(fold changes) 5-phosphoribosyl-1-pyrophosphate,"[2]; metabolite 5-phosphoribosyl-1-pyrophosphate, log2 fold change",0.7627
same,Log2(fold changes) 6-phospho-D-gluconate,"[2]; metabolite 6-phospho-D-gluconate, log2 fold change",0.0184
same,Log2(fold change) HVDD,[2]; metabolite HVDD,0.0000
same,Log2(fold change) Hydroxyisocaproic acid,[2]; metabolite Hydroxyisocaproic acid,0.0000
same,Log2(fold change) IDP,[2]; metabolite IDP,0.2471
same,Log2(fold change) IMP,[2]; metabolite IMP,-0.1535
same,Log2(fold change) Inositol,[2]; metabolite Inositol,0.0000
same,Log2(fold change) Isopentyl-PP,[2]; metabolite Isopentyl-PP,0.0000
same,Log2(fold change) L-arginino-succinate,[2]; metabolite L-arginino-succinate,0.0000
same,Log2(fold change) LD,[2]; metabolite LD,-0.0546
same,Log2(fold change) Myristoyl/tetradecanoyl-CoA,[2]; metabolite Myristoyl/tetradecanoyl-CoA,0.0000
same,Log2(fold change) N-Acetyl-L-alanine,[2]; metabolite N-Acetyl-L-alanine,0.0660
same,Log2(fold change) N-acetyl-L-ornithine,[2]; metabolite N-acetyl-L-ornithine,-0.0972
same,Log2(fold change) N-acetyl-glucosamine-1/6-phosphate,[2]; metabolite N-acetyl-glucosamine-1/6-phosphate,-0.3026
same,Log2(fold change) N-acetyl-glutamate,[2]; metabolite N-acetyl-glutamate,-0.1200
same,Log2(fold change) N-acetyl-glutamine,[2]; metabolite N-acetyl-glutamine,0.0000
same,Log2(fold change) N-carbamoyl-L-aspartate,[2]; metabolite N-carbamoyl-L-aspartate,-0.4399
same,Log2(fold change) NAD+,[2]; metabolite NAD+,-0.1775
same,Log2(fold change) NADH,[2]; metabolite NADH,0.6869
same,Log2(fold change) NADP+,[2]; metabolite NADP+,0.0190
same,Log2(fold change) NADPH,[2]; metabolite NADPH,0.5257
same,Log2(fold change) O-acetyl-L-serine,[2]; metabolite O-acetyl-L-serine,0.0000
same,Log2(fold change) Octoluse 8/1P,[2]; metabolite Octoluse 8/1P,-0.1481
same,Log2(fold change) Octoluse Bisphosphate,[2]; metabolite Octoluse Bisphosphate,-0.0868
same,Log2(fold change) PD,[2]; metabolite PD,-0.1726
same,Log2(fold change) PE,[2]; metabolite PE,-0.0321
same,Log2(fold change) PEE,[2]; metabolite PEE,0.0787
same,Log2(fold change) PEEK,[2]; metabolite PEEK,0.2857
same,Log2(fold change) PVNF,[2]; metabolite PVNF,0.3021
same,Log2(fold change) Pyroglutamic acid,[2]; metabolite Pyroglutamic acid,-0.1430
same,Log2(fold change) Pyrophosphate,[2]; metabolite Pyrophosphate,0.0000
same,Log2(fold change) Ribose-5-phosphate,[2]; metabolite Ribose-5-phosphate,0.0744
same,Log2(fold change) S-adenosyl-L-homocysteine,[2]; metabolite S-adenosyl-L-homocysteine,-0.2409
same,Log2(fold change) S-adenosyl-L-methioninamine,[2]; metabolite S-adenosyl-L-methioninamine,0.0000
same,Log2(fold change) S-adenosyl-L-methionine,[2]; metabolite S-adenosyl-L-methionine,0.0000
same,Log2(fold change) S-methyl-5'-thioadenosine,[2]; metabolite S-methyl-5'-thioadenosine,-0.0807
same,Log2(fold change) SD,[2]; metabolite SD,-0.0525
same,Log2(fold change) SDL,[2]; metabolite SDL,0.0000
same,Log2(fold change) SID,[2]; metabolite SID,0.0000
same,Log2(fold change) Sedoheptulose bisphosphate,[2]; metabolite Sedoheptulose bisphosphate,0.0024
same,Log2(fold change) Thiamine pyrophosphate,[2]; metabolite Thiamine pyrophosphate,-0.2290
same,Log2(fold changes) UDP-D-glucose,"[2]; metabolite UDP-D-glucose, log2 fold change",-0.0680
same,Log2(fold changes) UDP-D-glucuronate,"[2]; metabolite UDP-D-glucuronate, log2 fold change",0.0789
same,Log2(fold changes) UDP-N-acetyl-glucosamine,"[2]; metabolite UDP-N-acetyl-glucosamine, log2 fold change",-0.1825
same,Log2(fold changes) UDP,"[2]; metabolite UDP, log2 fold change",-0.3881
same,Log2(fold changes) UMP,"[2]; metabolite UMP, log2 fold change",-0.2463
same,Log2(fold changes) UTP,"[2]; metabolite UTP, log2 fold change",-0.0408
same,Log2(fold change) hydroxyphenylpyruvate,[2]; metabolite hydroxyphenylpyruvate,0.0000
same,Log2(fold change) hydroxyproline/Aminolevulinate,[2]; metabolite hydroxyproline/Aminolevulinate,0.0000
same,Log2(fold change) hypoxanthine,[2]; metabolite hypoxanthine,0.0000
same,Log2(fold change) indole,[2]; metabolite indole,0.0000
same,Log2(fold change) inosine,[2]; metabolite inosine,-0.4017
same,Log2(fold change) isoleucine,[2]; metabolite isoleucine,0.7210
same,Log2(fold change) lactate,[2]; metabolite lactate,-0.1398
same,Log2(fold change) leucine,[2]; metabolite leucine,0.2614
same,Log2(fold change) lysine,[2]; metabolite lysine,-0.0829
same,Log2(fold change) malate,[2]; metabolite malate,-0.0400
same,Log2(fold change) maleic acid,[2]; metabolite maleic acid,-0.0220
same,Log2(fold change) methionine,[2]; metabolite methionine,0.1258
same,Log2(fold change) myo-inositol,[2]; metabolite myo-inositol,-0.2003
same,Log2(fold change) nicotinamide mononucleotide,[2]; metabolite nicotinamide mononucleotide,-0.1519
same,Log2(fold change) nicotinate,[2]; metabolite nicotinate,-0.3017
same,Log2(fold change) ornithine,[2]; metabolite ornithine,0.0000
same,Log2(fold change) orotate,[2]; metabolite orotate,-0.5750
same,Log2(fold change) orotidine-5'-phosphate,[2]; metabolite orotidine-5'-phosphate,-0.6269
same,Log2(fold change) oxaloacetate,[2]; metabolite oxaloacetate,0.0000
same,Log2(fold change) p-aminobenzoate,[2]; metabolite p-aminobenzoate,0.0000
same,Log2(fold change) p-hydroxybenzoate,[2]; metabolite p-hydroxybenzoate,0.0000
same,Log2(fold change) pantothenate,[2]; metabolite pantothenate,-1.6576
same,Log2(fold change) phenylalanine,[2]; metabolite phenylalanine,0.0379
same,Log2(fold change) phenylpyruvate,[2]; metabolite phenylpyruvate,0.0000
same,Log2(fold change) phosphoenolpyruvate,[2]; metabolite phosphoenolpyruvate,0.1672
same,Log2(fold change) prephenate,[2]; metabolite prephenate,0.0000
same,Log2(fold change) proline,[2]; metabolite proline,0.1190
same,Log2(fold change) pyridoxine,[2]; metabolite pyridoxine,-0.1182
same,Log2(fold change) pyruvate,[2]; metabolite pyruvate,-0.0447
same,Log2(fold change) riboflavin,[2]; metabolite riboflavin,-0.0900
same,Log2(fold change) ribose,[2]; metabolite ribose,0.0000
same,Log2(fold change) ribose-phosphate,[2]; metabolite ribose-phosphate,-0.1993
same,Log2(fold change) ribulose-5-phosphate,[2]; metabolite ribulose-5-phosphate,-0.1201
same,Log2(fold change) serine,[2]; metabolite serine,-0.0692
same,Log2(fold change) sn-glycerol-3-phosphate,[2]; metabolite sn-glycerol-3-phosphate,0.0549
same,Log2(fold change) succinate/Methylmalonic acid,[2]; metabolite succinate/Methylmalonic acid,0.4289
same,Log2(fold change) succinyl-CoA/methylmalonyl-CoA,[2]; metabolite succinyl-CoA/methylmalonyl-CoA,0.0000
same,Log2(fold change) taurine,[2]; metabolite taurine,0.1250
same,Log2(fold change) thiamine,[2]; metabolite thiamine,-0.2233
same,Log2(fold change) threonine/homoserine,[2]; metabolite threonine/homoserine,-0.1021
same,Log2(fold change) thymidine,[2]; metabolite thymidine,0.0000
same,Log2(fold changes) thymine,"[2]; metabolite thymine, log2 fold change",0.0000
same,Log2(fold changes) trehalose-6-Phosphate,"[2]; metabolite trehalose-6-Phosphate, log2 fold change",0.0000
same,Log2(fold changes) tryptophan,"[2]; metabolite tryptophan, log2 fold change",0.0214
same,Log2(fold changes) tyrosine,"[2]; metabolite tyrosine, log2 fold change",0.0876
same,Log2(fold changes) uridine,"[2]; metabolite uridine, log2 fold change",-0.4227
same,Ratio lowest IC50 8hr/IC50 72hr,[3]; 3D7-A10,1.8
same,IC50,"[3]; 3D7, read-out: Early rings Mean IC50 (IC50^8h), 8-h exposure 0–8 hr, 3D7-A10, survival at 60 h",3.2 nM
same,IC50,"[3]; 3D7, read-out: Early trophozoites Mean IC50 (IC50^8h), 8-h exposure 16–24 hr, 3D7-A10, survival at 60 h",5.9 nM
same,IC50,"[3]; 3D7, read-out: Late rings Mean IC50 (IC50^8h), 8-h exposure 8–16 hr, 3D7-A10, survival at 60 h",13.3 nM
same,IC50,"[3]; 3D7, read-out: Late trophozoites Mean IC50 (IC50^8h), 8-h exposure 24–32 hr, 3D7-A10, survival at 60 h",8.3 nM
same,IC50,"[3]; 3D7, read-out: Schizonts Mean IC50 (IC50^8h), 8-h exposure 32–40 hr, 3D7-A10, survival at 60 h",64.8 nM
same,Stage of peak activity (Figure 6),[3]; period when the parasite was most susceptible (lowest IC50^8h),rings and trophozoites
